{"source": "patent US20250369975A1", "about": "“METHOD FOR DETECTING TRANSTHYRETIN TETRAMER, AND METHOD FOR EVALUATING STABILITY” (SYSMEX CORPORATION, priority 2024, published 2025)", "assay_type_in_all_cases": "binding", "key": {"[1]": {"test_system": "TTR tetramer (recombinant human transthyretin WT, T119M, V30M)", "conditions": "probe solution 10 μM; recombinant TTR 100 ng/mL; FIG. 14A-D"}, "[2]": {"molecular_target": "T1, TTR tetramer in blood sample (serum, plasma) (Homo sapiens, UniProt P02766)", "T1 construct": "serially diluting commercially available serum (ProMedex Corporation, 12011378); tissue ProMedex Corporation (serum); host or cells: serum and plasma mix", "experiment": "Example 2: same format, serially diluted serum and plasma samples", "conditions": "probe immobilized on solid phase", "experimental": "(§1) (1.2) Blood sample Six serum samples were prepared by serially diluting commercially available serum (ProMedex Corporation, 12011378) with 1% BSA/0.5% casein/PBS. Also six plasma samples were prepared by serially diluting a commercially available plasma mix with 1% BSA/0.5% casein/PBS.\nThe sample containing the recombinant TTR and the blood sample were the same as in Example 1. Probes C5 and C6 were diluted with 1% BSA/0.5% casein/PBS, to prepare a probe solution (0.3 μM). An ALP-labeled polyclonal anti-TTR antibody is used as the labeled antibody capable of binding to the TTR monomer. The labeled antibody was prepared by labeling a polyclonal rabbit anti-human prealbumin antibody (Agilent, A0002) with ALP by a usual method. […]\nTo each well of the plate, 300 μL of a blocking solution (1% BSA/0.5% casein/PBS) was added, followed by incubation for 1 hour at room temperature. […] 100 μL of a substrate solution of ALP was added to each well, and after 15 minutes, a chemiluminescence signal was measured with a plate reader. The samples were measured twice, and an average value of the two measured values was acquired. Results of measurement of the sample that contains the recombinant TTR are illustrated in FIGS. 16A and B. Measured results of the blood samples are illustrated in FIGS. 17A to D."}, "[3]": {"molecular_target": "T2, TTR tetramer in plasma sample (Homo sapiens, UniProt P02766)", "T2 construct": "serially diluting commercially available serum (ProMedex Corporation, 12011378); tissue ProMedex Corporation (serum); host or cells: serum and plasma mix", "experiment": "Example 3: same format, serially diluted plasma samples", "conditions": "probe solution 0.2 μM, FIG. 19B", "experimental": "as §1\nThe sample containing the recombinant TTR and the plasma sample were the same as in Example 1. Probes C5 and C6 were diluted with 1% BSA/0.5% casein/PBS, to prepare a probe solution (0.2 μM). The same ALP-labeled polyclonal anti-TTR antibody as in Example 2 was diluted 3200 times with 1% BSA/0.1% goat IgG/0.01% mouse IgG/0.005% scavenger ALP/PBS, to prepare a labeled antibody solution. The substrate solution and solid phase of ALP were the same as those in Example 2.\n150 μL of each sample and 150 μL of the probe solution were mixed, and incubated at room temperature for 1 hour. As a control (blank), instead of the sample, 150 μL of 1% BSA/0.5% casein/PBS and 150 μL of the probe solution were mixed, and incubated in the same manner. […] 100 μL of a substrate solution of ALP was added to each well, and after 15 minutes, a chemiluminescence signal was measured with a plate reader. The samples were measured twice, and an average value of the two measured values was acquired. […]"}, "[4]": {"test_system": "TTR tetramer (recombinant human transthyretin WT, T119M, V30M)", "conditions": "probe solution 0.2 μM mixed with sample; FIG. 18A-B"}, "[5]": {"test_system": "TTR tetramer (recombinant human transthyretin WT, T119M, V30M)", "conditions": "probe solution 0.3 μM immobilized on solid phase; recombinant TTR 100 ng/mL; FIG. 16A-B"}, "[6]": {"molecular_target": "T3, TTR tetramer (wild-type recombinant human transthyretin) (Homo sapiens, UniProt P02766)", "T3 construct": "purchased AlexoTech T-500-10", "experiment": "Example 5: HISCL-5000 automated immunoassay, tagged probe, streptavidin magnetic particle, ALP-labeled monoclonal anti-TTR antibody", "conditions": "R1 reagent 0.3 μM probe; WT TTR 10 and 100 μg/mL; FIG. 21B", "experimental": "A sample containing wild-type (WT) recombinant TTR at respective concentrations of 10 μg/mL and 100 μg/mL was prepared by diluting transthyretin (wild-type) human, recombinant (AlexoTech, T-500-10) with 1% BSA/0.5% casein/PBS.\n(2.1) R1 reagent As R1 buffer, a […] buffer (pH 8.0±0.05) containing 1% BSA, 0.15 g/L mouse IgG, 0.1% sodium azide, […], 0.1% Tween® 20 and 20 mg/mL alkaline phosphatase (AP) mutein was prepared. Probe C5 was diluted with R1 buffer, to prepare R1 reagent (0.1 μM) containing probe C5. Probe C6 was also diluted with R1 buffer, to prepare R1 reagent (0.3 μM) that contains probe C6.\nAs R3 buffer, a 0.1 mol/L HEPES buffer (pH 8.0±0.05) containing 1% BSA, 0.15 g/L murine IgG, 0.1% sodium azide, 0.15 mol/L NaCl, 0.1% Tween20.20 mg/mL AP mutein, 1.0 mmol/L MgCl, and 0.1 mmol/L ZnCl of 2 was prepared. An ALP-labeled monoclonal anti-TTR antibody was used as the labeled antibody capable of binding to the TTR monomer. […]\n50 μL of each R1 reagent was added to the cuvette, to which 30 μL of the sample was then added, followed by incubation for 2.5 minutes. […] Five minutes later, the chemiluminescence signal was measured with HISCL-5000. As a control (blank), the sample was similarly measured with use of 30 μL of 1% BSA/0.5% casein/PBS instead of the sample. […]"}}, "note": "Like-named read-outs stand apart in the source and are kept apart here.", "data": [{"smiles": "O=C(CCCCC1SCC2NC(=O)NC21)NCCOCCOCCOCCOCCOCCOCCOCCOCCOCCOCCOCCOCCC(=O)Nc1ccc(/C=C/c2cc(Br)c(O)c(Br)c2)cc1", "note": "(stereo not shown) [Probe C6, Biotin-PEG12-Stilbene Derivative]", "values": [{"measurement": "chemiluminescence signal measured values of WT, T119M and V30M samples versus blank", "setting": "[1]", "result": "results similar to those of FIG. 14 A"}, {"measurement": "signal measured value of the plasma sample versus dilution factor", "setting": "[2]; serially diluted plasma, FIG. 17D", "result": "similarly increased according to the dilution factor"}, {"measurement": "signal measured value of the serum sample versus dilution factor", "setting": "[2]; serially diluted serum, FIG. 17C", "result": "increased according to the dilution factor"}, {"measurement": "signal measured value of the plasma sample versus dilution factor", "setting": "[3]", "result": "increased according to the dilution factor"}, {"measurement": "chemiluminescence signal measured values of WT, T119M and V30M samples versus blank", "setting": "[4]", "result": "a result similar to that of FIG. 18 A"}, {"measurement": "chemiluminescence signal measured values of WT, T119M and V30M samples versus blank", "setting": "[5]", "result": "a result similar to that of FIG. 16 A"}, {"measurement": "signal measured value versus level of recombinant TTR in the sample", "setting": "[6]", "result": "increased corresponding to the level of the recombinant TTR in the sample"}]}]}
